According to PubChem BioAssay (NCI):
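Interpolation was linear, between the two tested concentrations surrounding the appropriate level; five concentrations were tested over 48 hours in 96-well plates. GI50: concentration for 50% inhibition of growth. TGI denotes the concentration required for complete inhibition of growth.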

What was measured:
Assay in all cases: NCI tumour cell line growth inhibition, 48 h
[1] = system: 786-0 renal
[2] = system: A498 renal
[3] = system: A549 NSCLC
[4] = system: ACHN renal
[5] = system: BT-549 breast
[6] = system: CAKI-1 renal
[7] = system: CCRF-CEM leukemia
[8] = system: COLO 205 colon
[9] = system: DU-145 prostate
[10] = system: EKVX NSCLC
[11] = system: HCC-2998 colon
[12] = system: HCT-116 colon
[13] = system: HCT-15 colon
[14] = system: HL-60(TB) leukemia
[15] = system: HOP-62 NSCLC
[16] = system: HOP-92 NSCLC
[17] = system: HS 578T breast
[18] = system: HT29 colon
[19] = system: IGROV1 ovarian
[20] = system: K-562 leukemia
[21] = system: KM12 colon
[22] = system: LOX IMVI melanoma
[23] = system: M14 melanoma
[24] = system: MALME-3M melanoma
[25] = system: MCF7 breast
[26] = system: MDA-MB-231 breast
[27] = system: MDA-MB-435
[28] = system: MOLT-4 leukemia
[29] = system: NCI-H226 lung
[30] = system: NCI-H23 lung
[31] = system: NCI-H460 lung
[32] = system: NCI-H522 lung
[33] = system: NCI/ADR-RES ovarian
[34] = system: OVCAR-3 ovarian
[35] = system: OVCAR-4 ovarian
[36] = system: OVCAR-5 ovarian
[37] = system: OVCAR-8 ovarian
[38] = system: PC-3 prostate
[39] = system: RPMI-8226 leukemia
[40] = system: RXF 393 renal
[41] = system: SF-268 CNS
[42] = system: SF-295 CNS
[43] = system: SF-539 CNS
[44] = system: SK-MEL-2 melanoma
[45] = system: SK-MEL-28 melanoma
[46] = system: SK-MEL-5 melanoma
[47] = system: SK-OV-3 ovarian
[48] = system: SN12C renal
[49] = system: SNB-19 CNS
[50] = system: SNB-75 CNS
[51] = system: SR leukemia
[52] = system: SW-620 colon
[53] = system: T-47D breast
[54] = system: TK-10 renal
[55] = system: U251 CNS
[56] = system: UACC-257 melanoma
[57] = system: UACC-62 melanoma
[58] = system: UO-31 renal

NS(=O)(=O)c1ccc(N=Nc2c(O)[nH]c3ccc(Cl)cc23)cc1
GI50 [1]: 8.42 µM | TGI [1]: > 20.3 µM | GI50 [2]: > 22 µM | TGI [2]: > 25 µM | GI50 [3]: 11.3 µM | TGI [3]: > 25 µM | GI50 [4]: 9.95 µM | TGI [4]: > 25 µM | GI50 [5]: > 16.9 µM | TGI [5]: > 25 µM | GI50 [6]: > 17.9 µM | TGI [6]: > 25 µM | GI50 [7]: > 7.22 µM | TGI [7]: > 25 µM | GI50 [8]: > 25 µM | TGI [8]: > 25 µM | GI50 [9]: 15.5 µM | TGI [9]: > 25 µM | GI50 [10]: > 25 µM | TGI [10]: > 25 µM | GI50 [11]: 18.3 µM | TGI [11]: > 25 µM | GI50 [12]: 7.04 µM | TGI [12]: > 16.9 µM | GI50 [13]: > 22.1 µM | TGI [13]: > 25 µM | GI50 [14]: > 25 µM | TGI [14]: > 25 µM | GI50 [15]: 13.4 µM | TGI [15]: > 25 µM | GI50 [16]: > 9.61 µM | TGI [16]: > 25 µM | GI50 [17]: 11.6 µM | TGI [17]: > 25 µM | GI50 [18]: > 18.9 µM | TGI [18]: > 25 µM | GI50 [19]: > 19.6 µM | TGI [19]: > 25 µM | GI50 [20]: > 25 µM | TGI [20]: > 25 µM | GI50 [21]: 7.58 µM | TGI [21]: > 25 µM | GI50 [22]: 9.96 µM | TGI [22]: > 25 µM | GI50 [23]: > 25 µM | TGI [23]: > 25 µM | GI50 [24]: 20.7 µM | TGI [24]: > 25 µM | GI50 [25]: 12.2 µM | TGI [25]: > 25 µM | GI50 [26]: 8.86 µM | TGI [26]: > 25 µM | GI50 [27]: > 25 µM | TGI [27]: > 25 µM | GI50 [28]: > 25 µM | TGI [28]: > 25 µM | GI50 [29]: 13.6 µM | TGI [29]: > 25 µM | GI50 [30]: 14 µM | TGI [30]: > 25 µM | GI50 [31]: 8.62 µM | TGI [31]: > 25 µM | GI50 [32]: 5.38 µM | TGI [32]: > 25 µM | GI50 [33]: 24.5 µM | TGI [33]: > 25 µM | GI50 [34]: 4.87 µM | TGI [34]: 14.2 µM | GI50 [35]: > 21.9 µM | TGI [35]: > 25 µM | GI50 [36]: > 25 µM | TGI [36]: > 25 µM | GI50 [37]: 12.9 µM | TGI [37]: > 25 µM | GI50 [38]: > 25 µM | TGI [38]: > 25 µM | GI50 [39]: > 25 µM | TGI [39]: > 25 µM | GI50 [40]: 12.9 µM | TGI [40]: > 25 µM | GI50 [41]: 17.6 µM | TGI [41]: > 25 µM | GI50 [42]: > 25 µM | TGI [42]: > 25 µM | GI50 [43]: 5.29 µM | TGI [43]: > 21.9 µM | GI50 [44]: > 18.3 µM | TGI [44]: > 25 µM | GI50 [45]: > 25 µM | TGI [45]: > 25 µM | GI50 [46]: 16.1 µM | TGI [46]: > 25 µM | GI50 [47]: 6.73 µM | TGI [47]: 14.5 µM | GI50 [48]: 17.2 µM | TGI [48]: > 25 µM | GI50 [49]: > 25 µM | TGI [49]: > 25 µM | GI50 [50]: 8.66 µM | TGI [50]: 24.9 µM | GI50 [51]: 6.13 µM | TGI [51]: > 25 µM | GI50 [52]: > 22.4 µM | TGI [52]: > 25 µM | GI50 [53]: > 25 µM | TGI [53]: > 25 µM | GI50 [54]: 5.78 µM | TGI [54]: > 23 µM | GI50 [55]: 6.64 µM | TGI [55]: > 25 µM | GI50 [56]: > 25 µM | TGI [56]: > 25 µM | GI50 [57]: > 15.2 µM | TGI [57]: > 25 µM | GI50 [58]: 6.46 µM | TGI [58]: > 20.6 µM
